Our source for the Ki values is patent publication US20190085024A1, “Alpha-Ketoamide Inhibitors Of Cysteine Proteases” (Phelix Therapeutics, priority 2017, published 2019).

One assay addresses Cathepsin L (Homo sapiens, UniProt P07711). Put plainly: Cathepsin L enzyme assay. Format: biochemical. The following applies: Ki by Morrison equation; pH 5.5, substrate Z-Phe-Arg-Amc; read-out: Cat L. An excerpt:
Two wells contained DMSO only for controls.
Velocity was converted to μM/sec.

The target in a further assay is Cathepsin B (Homo sapiens, UniProt P07858). As to the kind of experiment: Cathepsin B enzyme assay. The settings on record: Cat B (μM), Ki by Morrison equation; pH 6.0, substrate Z-Phe-Arg-Amc.
A further assay deals with Calpain. Put plainly: Calpain enzyme assay. The class given is biochemical. The settings on record: Ki by Morrison equation; pH 7.5, 5 mM CaCl2.

Cathepsin L, sequence (P07711 114-333, species assumed): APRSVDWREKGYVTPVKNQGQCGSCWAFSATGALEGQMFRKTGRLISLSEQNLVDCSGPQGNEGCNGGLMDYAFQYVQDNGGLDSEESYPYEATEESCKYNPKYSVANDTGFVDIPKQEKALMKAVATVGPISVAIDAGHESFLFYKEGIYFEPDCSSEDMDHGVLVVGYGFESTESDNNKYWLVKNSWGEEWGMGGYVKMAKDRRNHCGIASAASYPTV

As to `CCC(C)C(NC(=O)C(=O)C(Cc1ccccc1)NC(=O)C(Cc1ccccc1)NC(=O)Cc1ccccc1)C(=O)NC(C)(C)C(=O)O` (stereo not drawn) [PHELIX150, 9,12-dibenzyl-5-(sec-butyl)-2,2-dimethyl-4,7,8,11,14-pentaoxo-15-phenyl-3,6,10,13-tetraazapentadecanoic acid], the Ki at Cathepsin L stood at 39.2 nM; at Cathepsin B it was 0.0303 µM; on Calpain, 5110 nM.

For `CCC(C)C(NC(=O)C(=O)C(C)NC(=O)C(Cc1ccccc1)NC(=O)Cc1ccc(-c2ccccc2)cc1)C(=O)NC(C)(C)C(=O)O` (stereo not drawn) [PHELIX159, 15-([1,1′-biphenyl]-4-yl)-12-benzyl-5-(sec-butyl)-2,2,9-trimethyl-4,7,8,11,14-pentaoxo-3,6,10,13-tetraazapentadecanoic acid], the Ki turned out to be 2450 nM on Cathepsin L, 0.0414 µM at Cathepsin B and 16600 nM at Calpain.

For the compound `CCC(C)C(NC(=O)C(=O)C(C)NC(=O)CCNC(=O)OCc1ccccc1)C(=O)NC(C)(C)C(=O)O` (stereo not drawn) [PHELIX164, 13-(sec-butyl)-9,16,16-trimethyl-3,7,10,11,14-pentaoxo-1-phenyl-2-oxa-4,8,12,15-tetraazaheptadecan-17-oic acid], the results for the Ki at Cathepsin L, at Cathepsin B and on Calpain were > 1000 nM, 34.6 µM and > 100000 nM, respectively.

As for `CC(NC(=O)C(Cc1ccccc1)NC(=O)Cc1ccccc1)C(=O)C(=O)NC(CC1CC1)C(=O)NC(C)(C)C(=O)O` (stereo not drawn) [PHELIX166, 12-benzyl-5-(cyclopropylmethyl)-2,2,9-trimethyl-4,7,8,11,14-pentaoxo-15-phenyl-3,6,10,13-tetraazapentadecanoic acid], the figures for the Ki on Cathepsin L, at Cathepsin B and on Calpain were 586 nM, 0.0081 µM and > 100000 nM, respectively.

For `CC[C@H](C)[C@H](NC(=O)C(=O)C(Cc1ccccc1)NC(=O)C(Cc1ccccc1)NC(=O)Cc1ccccc1)C(=O)N1CCC[C@H]1C(=O)O` (stereo partly drawn) [PHELIX156, (2-oxo-4-phenyl-3-(3-phenyl-2-(2-phenylacetamido)propanamido)butanoyl)isoleucylproline], the Ki at Cathepsin L amounted to 1.58 nM; on Cathepsin B, 0.0102 µM; at Calpain it was 9850 nM.

`CCC(C)C(NC(=O)C(CC(C)C)NC(=O)OCc1ccccc1)C(=O)C(=O)NC(CCCNC(N)=O)C(=O)NC(Cc1ccc2ccccc2c1)C(N)=O` (stereo not drawn) [PHELIX315, benzyl (1-((1-((1-((1-amino-3-(naphthalen-2-yl)-1-oxopropan-2-yl)amino)-1-oxo-5-ureidopentan-2-yl)amino)-4-methyl-1,2-dioxohexan-3-yl)amino)-4-methyl-1-oxopentan-2-yl)carbamate]: the Ki on Cathepsin L is 0.47 nM; at Cathepsin B, > 10 µM; at Calpain it was 1.48 nM.

For `CCC(C)C(NC(=O)C(=O)C(C)NC(=O)C(Cc1ccccc1)NC(=O)Cc1cccc2ccccc12)C(=O)NC(C)(C)C(=O)O` (stereo not drawn) [PHELIX163, 12-benzyl-5-(sec-butyl)-2,2,9-trimethyl-15-(naphthalen-1-yl)-4,7,8,11,14-pentaoxo-3,6,10,13-tetraazapentadecanoic acid], the Ki was determined as 429 nM on Cathepsin L and 0.0485 µM at Cathepsin B.

On to `CC(NC(=O)C(Cc1ccccc1)NC(=O)Cc1ccccc1)C(=O)C(=O)N[C@@H](Cc1ccccc1)C(=O)N1CCC[C@H]1C(=O)O` (stereo partly drawn) [PHELIX178, (2-oxo-3-(3-phenyl-2-(2-phenylacetamido)propanamido)butanoyl)phenylalanyl proline], for which the Ki at Cathepsin L amounted to 38.5 nM; at Cathepsin B it was 0.0067 µM.

As for `CCC(C)C(NC(=O)C(=O)C(C)NC(=O)Cc1ccccc1)C(=O)NC(C)(C)C(=O)O` (stereo not drawn) [PHELIX132, 2-methyl-2-(3-methyl-2-(2-oxo-3-(2-phenylacetamido)butanamido)pentanamido)propanoic acid], the figures for the Ki on Cathepsin L and on Cathepsin B were 134000 nM and 702 µM, respectively.

`CCC(C)C(NC(=O)C(=O)C(C)NC(=O)C(Cc1cccc(C)c1)NC(=O)Cc1ccccc1)C(=O)NC(C)(C)C(=O)O` (stereo not drawn) [PHELIX175, 5-(sec-butyl)-2,2,9-trimethyl-12-(3-methylbenzyl)-4,7,8,11,14-pentaoxo-15-phenyl-3,6,10,13-tetraazapentadecanoic acid]: the Ki on Cathepsin L came out at 108 nM; at Cathepsin B it was 0.0069 µM.

Regarding `CCC(C)C(NC(=O)C(=O)C(C)NC(=O)C(Cc1cccc(C#N)c1)NC(=O)Cc1ccccc1)C(=O)NC(C)(C)C(=O)O` (stereo not drawn) [PHELIX176, 5-(sec-butyl)-12-(3-cyanobenzyl)-2,2,9-trimethyl-4,7,8,11,14-pentaoxo-15-phenyl-3,6,10,13-tetraazapentadecanoic acid], the values for the Ki at Cathepsin L and on Cathepsin B were 2690 nM and 0.0378 µM, respectively.

As for `CCC(C)C(NC(=O)C(=O)C(C)NC(=O)C(Cc1ccc(C(F)(F)F)cc1)NC(=O)Cc1ccccc1)C(=O)NC(C)(C)C(=O)O` (stereo not drawn) [PHELIX168, 5-(sec-butyl)-2,2,9-trimethyl-4,7,8,11,14-pentaoxo-15-phenyl-12-(4-(trifluoro-methyl)benzyl)-3,6,10,13-tetraazapentadecanoic acid], the Ki at Cathepsin L turned out to be 1270 nM; on Cathepsin B, 0.519 µM.

For the compound `CCC(C)C(NC(=O)C(=O)C(C)NC(=O)C(Cc1ccc(C(C)(C)C)cc1)NC(=O)Cc1ccccc1)C(=O)NC(C)(C)C(=O)O` (stereo not drawn) [PHELIX167, 5-(sec-butyl)-12-(4-(tert-butyl)benzyl)-2,2,9-trimethyl-4,7,8,11,14-pentaoxo-15-phenyl-3,6,10,13-tetraazapentadecanoic acid], the Ki was 2600 nM at Cathepsin L and 0.273 µM at Cathepsin B.

Consider `CC(NC(=O)C(Cc1ccccc1)NC(=O)Cc1ccccc1)C(=O)C(=O)NC(CC1CCCCC1)C(=O)NC(C)(C)C(=O)O` (stereo not drawn) [PHELIX177, 12-benzyl-5-(cyclohexylmethyl)-2,2,9-trimethyl-4,7,8,11,14-pentaoxo-15-phenyl-3,6,10,13-tetraazapentadecanoic acid], for which the Ki on Cathepsin L came to 92.2 nM; at Cathepsin B it was 0.0012 µM.

Take `CC[C@H](C)[C@H](NC(=O)C(=O)C(C)NC(=O)C(Cc1ccccc1)NC(=O)Cc1ccccc1)C(=O)N1CCC[C@H]1C(=O)O` (stereo partly drawn) [PHELIX155, (2-oxo-3-(3-phenyl-2-(2-phenylacetamido)propanamido)butanoyl)isoleucylproline]: the values for the Ki on Cathepsin L and on Cathepsin B were 300 nM and 0.0215 µM, respectively.

Turning to `CC(NC(=O)C(Cc1ccccc1)NC(=O)Cc1ccccc1)C(=O)C(=O)NC(Cc1cccc2ccccc12)C(=O)NC(C)(C)C(=O)O` (stereo not drawn) [PHELIX162, 12-benzyl-2,2,9-trimethyl-5-(naphthalen-1-ylmethyl)-4,7,8,11,14-pentaoxo-15-phenyl-3,6,10,13-tetraazapentadecanoic acid], the Ki at Cathepsin L came to 402 nM; on Cathepsin B it was 0.03 µM.

Consider `CC[C@H](C)[C@H](NC(=O)C(=O)C(Cc1ccccc1)NC(=O)C(Cc1ccccc1)NC(=O)Cc1ccccc1)C(=O)N1CSCC1C(=O)O` (stereo partly drawn) [PHELIX174, 3-((2-oxo-4-phenyl-3-(3-phenyl-2-(2-phenylacetamido)propanamido)butanoyl)isoleucyl)thiazolidine-4-carboxylic acid], for which the Ki was determined as 461 nM at Cathepsin L and 0.157 µM at Cathepsin B.

Regarding `CCC(C)C(NC(=O)C(=O)C(C)NC(=O)C(Cc1ccccc1)NC(=O)Cc1ccccc1)C(=O)NC(C)(C)C(=O)OC` (stereo not drawn) [PHELIX179, methyl 12-benzyl-5-(sec-butyl)-2,2,9-trimethyl-4,7,8,11,14-pentaoxo-15-phenyl-3,6,10,13-tetraazapentadecanoate], the Ki at Cathepsin L amounted to 881 nM; at Cathepsin B it was 17.8 µM.
